Source: US20230117361A1, “COMPOSITION COMPRISING MIR-335” (AGENCY FOR SCIENCE, TECHNOLOGY AND RESEARCH, priority 2019, published 2023)

Tests used:
[1] = test system: miR-335; assay: miR-335 expression in N/TERT-1 cells treated with HDAC inhibitors (qRT-PCR, in situ hybridization); type: cell-based, human
Description: Paraffin wax-embedded skin tissue sections (5 μm) were dewaxed, rehydrated and boiled in pre-treatment solution (Panomics) for 5 minutes and subsequently treated with protease (Panomics) for 30 minutes at 37° C. Locked nucleic acid (LNA) probes were then added to the sections and incubated at 51° C. for 4 hours. The LNA probes used are specific to miR-335 and scrambled (non-targeting) sequences and are 5′ and 3′ digoxigenin- (DIG-) labelled. After washing the sections sequentially with 5× saline-sodium citrate (SSC), 1×SSC and 0.3×SSC buffer, they were blocked with 10% goat serum and incubated with anti-DIG alkaline phosphatase (Roche) overnight at 4° C. Fast Red Substrate (Panomics) were used to detect miRNA-bound LNA probes. […]
Total RNA was isolated using miRCURY™ RNA isolation kit (Exiqon). For miRNA quantification, cDNA was synthesized using Taqman® miRNA reverse transcription kit (Life Technologies) and the expression level of miRNAs was quantified by TaqMan Gene Expression Assays (Applied Biosystems) in 7900 fast RT-PCR system (Applied Biosystems) using Taqman miRNA-specific primers. […] The expression levels of mRNAs were measured using SYBR green PCR Master Mix (Applied Biosystems). […] The expression of a gene/miRNA was defined from threshold cycle (Ct), and relative transcript abundance was calculated using ddCT method. […]

[2] = test system: promoter region of miR-335 and MEST; assay: Chromatin immunoprecipitation (ChIP)-qPCR at the promoter region of miR-335 and MEST; type: cell-based, human
Description: Cells were crosslinked with 1.5% formaldehyde for 10 minutes at 37° C. The reaction was stopped by adding glycine to the final concentration of 125 mM for 5 minutes at 37° C. Fixed cells were washed twice with ice-cold PBS, scraped and centrifuged. The pellets were then incubated with Buffer A (10 mM HEPES Ph7.9, 10 mM KCl, 0.1 mM EGTA, 1 mM DTT and 0.5 mM PMSF) supplemented with 1×protease inhibitor cocktail (Roche) and 10% glycerol on ice for 30 min, followed by 0.5% NP-40 for 5 minutes to lyse cytoplasmic membrane. The cells were then centrifuged at 1500×g for 5 minutes to pellet down nuclei. Nuclear pellet was then lysed in ChIP buffer (50 mM Tris pH 7.4, 150 mM NaCl, 5 mM EDTA, 0.5% NP-40, 1% Triton X-100, 0.05% SDS, 1×protease inhibitor cocktail). Nuclear chromatin was sheared by sonication for 15 min (30 sec on and 30 sec off) in Bioruptor® water bath sonicator. The sonicated samples were centrifuged, and the supernatant containing the sheared chromatin was harvested. For each ChIP reaction, 250 μl of chromatin extract was incubated with appropriate antibodies at 4° C. overnight on a rotary wheel. 50 μl of Protein A sepharose resin (precoated with 0.5% BSA and 0.2 mg/mL tRNA) was then added to the immunoprecipitated samples and incubated for 2 hours. […] Fold enrichment of the genes was calculated using ddCt method with input Ct values as normalization control.

[3] = test system: N/TERT-1 keratinocytes; assay: Expression of MEST and keratinocyte differentiation markers (IVL, SPRR2F, TGM1) in N/TERT-1 cells treated with HDAC inhibitors; type: cell-based, human
Description: Cells were fixed and permeabilized with ice-cold acetone/methanol for 10 minutes. After washing in phosphate buffered saline (PBS), the cells were incubated with 10% goat serum for 30 minutes. The cells were subsequently incubated with primary antibodies for 2 hours at room temperature or overnight at 4° C. After washing three times with PBS with 0.1% Tween 20, the cells were incubated in dark with Alexa Fluor secondary antibodies (Invitrogen) for an hour. Nuclei were stained using DAPI. After washing with PBS, the cells were mounted onto slides with FluorSave reagent (EMD Millipore). Images were taken with an FV1000 inverted confocal microscope (Olympus) using Olympus FluoView.
Total RNA was isolated using miRCURY™ RNA isolation kit (Exiqon). For miRNA quantification, cDNA was synthesized using Taqman® miRNA reverse transcription kit (Life Technologies) and the expression level of miRNAs was quantified by TaqMan Gene Expression Assays (Applied Biosystems) in 7900 fast RT-PCR system (Applied Biosystems) using Taqman miRNA-specific primers. For mRNA expression, cDNA was synthesized using SuperScript® III Reverse Transcriptase (Life Technologies) according to manufacturer's protocol. The expression levels of mRNAs were measured using SYBR green PCR Master Mix (Applied Biosystems). U6 and RPLP0 were used as endogenous normalization controls for miRNA and protein-coding genes, respectively. The expression of a gene/miRNA was defined from threshold cycle (Ct), and relative transcript abundance was calculated using ddCT method. All reactions were run in triplicates. The primers were designed using the Primer3 software and the NCBI design primer tools. The primers were checked for their GC content and any secondary structure formation using OligoCalc.
A panel of 42 HDAC inhibitors (HDACi) covering the majority of type I, II and pan HDACis were purchased from Selleckchem. N/TERT-1 grown to confluence were treated with HDACi at a final concentration of 1 μM from a 100 μM stock. Control wells were treated with DMSO at a final concentration of 1%. […]

[4] = test system: N/TERT-1 cells; assay: HDAC inhibitor screening: toxicity, growth arrest and differentiation; type: cell-based, human; details: HDACi 1 μM, 48 hrs
Description: A panel of 42 HDAC inhibitors (HDACi) covering the majority of type I, II and pan HDACis were purchased from Selleckchem. N/TERT-1 grown to confluence were treated with HDACi at a final concentration of 1 μM from a 100 μM stock. Control wells were treated with DMSO at a final concentration of 1%. After 48 hrs of treatment, cells were either processed for total RNA isolation or fixed and stained for human involucrin by immunocytochemistry.

[5] = test system: human skin biopsies; assay: Ex-vivo human skin organ culture model, topical treatment
Description: Paraffin wax-embedded skin tissue sections (5 μm) were dewaxed, rehydrated and boiled in pre-treatment solution (Panomics) for 5 minutes and subsequently treated with protease (Panomics) for 30 minutes at 37° C. Locked nucleic acid (LNA) probes were then added to the sections and incubated at 51° C. for 4 hours. The LNA probes used are specific to miR-335 and scrambled (non-targeting) sequences and are 5′ and 3′ digoxigenin- (DIG-) labelled. After washing the sections sequentially with 5× saline-sodium citrate (SSC), 1×SSC and 0.3×SSC buffer, they were blocked with 10% goat serum and incubated with anti-DIG alkaline phosphatase (Roche) overnight at 4° C. Fast Red Substrate (Panomics) were used to detect miRNA-bound LNA probes. Tissue sections were counterstained with 4′,6-diamidino-2-phenylindole dihydrochloride (DAPI) (Sigma-Aldrich) and mounted with FluorSave™ reagent (EMD Millipore). The slides were examined with an FV1000 inverted confocal microscope (Olympus) and images were acquired using Olympus FluoView with TRITC and DAPI filters.
Paraffin wax-embedded skin tissue sections (5 μm) were dewaxed and rehydrated through decreasing concentration of ethanol. Endogenous peroxidases in tissue sections were quenched by 3% H2O2 in absolute methanol for 30 minutes. The sections were then boiled in antigen retrieval solution (pH 6, DAKO). Sections were then blocked in 10% goat serum for 30 minutes and incubated with primary antibodies overnight at 4° C. After incubation with primary antibodies, tissues were incubated with anti-rabbit or -mouse Envision-labelled polymer reagents (DAKO) for 1 hour at room temperature. The staining was visualized by 3,3′-diaminodbenzidine (DAB) substrate chromogen kit (DAKO). Slides were counterstained with haematoxylin and examined with a Zeiss AxioImager Z1 upright light microscope after mounting with CytosealTM60 mounting medium (Richard Allan Scientific). Images were acquired using Zeiss Zen software.
Total RNA was isolated using miRCURY™ RNA isolation kit (Exiqon). For miRNA quantification, cDNA was synthesized using Taqman® miRNA reverse transcription kit (Life Technologies) and the expression level of miRNAs was quantified by TaqMan Gene Expression Assays (Applied Biosystems) in 7900 fast RT-PCR system (Applied Biosystems) using Taqman miRNA-specific primers. For mRNA expression, cDNA was synthesized using SuperScript® III Reverse Transcriptase (Life Technologies) according to manufacturer's protocol. The expression levels of mRNAs were measured using SYBR green PCR Master Mix (Applied Biosystems). […] The expression of a gene/miRNA was defined from threshold cycle (Ct), and relative transcript abundance was calculated using ddCT method. […]

[6] = test system: N/TERT-1 keratinocytes; assay: Cornified envelope assay; type: cell-based, human; details: N/TERT-1 treated with HDAC inhibitor vs control, FIG. 6C, 6D
Description: N/TERT-1 keratinocytes were grown in DF-K media until confluent, and then shifted to high Ca^2+ conditions (1.5 mM) for a further 7 days in fresh DF-K media to induce terminal differentiation and cornified envelope formation, and the number of cornified envelopes (CEs) assessed following the method of Rice et al. In brief, cells were trypsinized and resuspended at 2.0×10^6 cells/ml in dissociation buffer containing 0.1 M Tris-HCl buffer pH 8.0, 2% SDS and 20 mM dithiothreitol. CEs were harvested by boiling the samples for 15 minutes at 100° C. Detergent- and reducing agent-resistant CEs were collected as an insoluble pellet by centrifugation at 4000×g for 10 minutes. CEs were counted with a hemocytometer, and CE formation was expressed as a percentage of input cell number.

[7] = test system: AD-like symptoms; details: mice, two independent studies [24, 25]; cited from earlier work

## CCCC(=O)[O-].[Na+] [sodium butyrate]
[1]; N/TERT-1 keratinocytes, qRT-PCR, FIG. 5B
  relative expression of miR-335: significant miR-335 upregulation
[2]; N/TERT-1, ChIP, FIG. 5D
  enrichment of H3K4ac at the upstream region of MEST and miR-335: significant increase in the enrichment of H3K4ac
[2]; keratinocytes, ChIP
  HDAC2 enrichment in the promoter region of miR-335: reduced
[3]; N/TERT-1, qRT-PCR, FIG. 5C
  relative expression of MEST: significantly increased MEST expression
[3]; N/TERT-1, qRT-PCR, FIG. 5F
  relative transcript abundance of differentiation markers IVL, SPRR2F and TGM1: significant upregulation

## O=C(/C=C/c1cccc(S(=O)(=O)Nc2ccccc2)c1)NO [belinostat, (E)-N-hydroxy-3-(3-(N-phenylsulfamoyl)phenyl)acrylamide]
[1]; N/TERT-1 cells, FIG. 6B upper panel
  expression of miR-335 by in situ hybridization: Induced expression of miR-335
[4]
  toxicity: low toxicity
[3]; N/TERT-1 cells vs control cells, FIG. 6B lower panel
  expression of IVL by immunocytochemistry: significant expression of IVL
[5]; human skin biopsies vs mock treated skin, FIG. 6F
  expression of miR-335 in epidermal layers by in situ hybridization: higher expression of miR-335
[5]; human skin biopsies, FIG. 6G
  levels of IVL by immunohistochemistry: significant increase in the levels of IVL
[5]; human skin biopsies, FIG. 11
  filaggrin (FLG) protein by immunohistochemistry: induced significant levels of filaggrin
[5]; human skin biopsies, topical in acetone, 1 mM, daily for six days, FIG. 6E
  expression of miR-335 by quantitative RT-PCR: significant expression of miR-335
[6]
  number of cornified envelopes (CEs): increased number of CEs

## CC(/C=C/C(=O)NO)=C\[C@@H](C)C(=O)c1ccc(N(C)C)cc1 [TSA, trichostatin A]
[7]
  development of AD-like symptoms: suppress the development of AD-like symptoms
